Patent publication US8431593B2, “Heteroaryl amide derivatives” (H. Lundbeck A/S, priority 2006, dated 2013)
Like-named read-outs stand apart in the source and are kept apart here. One block for each compound: values may come before it.

Molecular target: T1, P2X7 receptor (Homo sapiens, UniProt Q99572)
T1 construct: host or cells: SH-SY5Y
T1 sequence (Q99572 1-595): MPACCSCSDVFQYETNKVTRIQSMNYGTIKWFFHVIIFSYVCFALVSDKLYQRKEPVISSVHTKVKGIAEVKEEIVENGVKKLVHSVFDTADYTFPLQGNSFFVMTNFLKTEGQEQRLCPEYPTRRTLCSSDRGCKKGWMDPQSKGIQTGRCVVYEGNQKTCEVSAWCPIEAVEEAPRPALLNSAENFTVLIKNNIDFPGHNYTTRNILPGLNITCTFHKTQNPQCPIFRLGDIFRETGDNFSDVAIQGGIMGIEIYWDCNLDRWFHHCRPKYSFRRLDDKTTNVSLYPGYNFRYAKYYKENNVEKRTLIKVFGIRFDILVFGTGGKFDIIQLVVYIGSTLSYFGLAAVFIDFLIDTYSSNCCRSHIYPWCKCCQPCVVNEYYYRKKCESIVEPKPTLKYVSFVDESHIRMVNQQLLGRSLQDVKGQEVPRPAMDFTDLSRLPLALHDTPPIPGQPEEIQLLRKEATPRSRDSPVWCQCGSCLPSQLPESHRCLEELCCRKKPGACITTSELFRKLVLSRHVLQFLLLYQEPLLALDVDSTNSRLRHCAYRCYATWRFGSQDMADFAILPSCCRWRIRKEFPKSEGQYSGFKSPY
Test: P2X7 calcium mobilization assay, high throughput, antagonist activity (Example 4A)
Assay type: cell-based
Procedure, shortened: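 Cells plated at 100,000/well the day before were dye-loaded for 1 h, then incubated 1 h at room temperature with test compound before agonist-triggered calcium mobilization was read on FLIPR Tetra. Maximum RFU was corrected by subtracting the no-agonist control and related to the agonist-control response.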

[1] = 50% decrease in the fluorescence response of cells exposed to 80 μM of 2′(3′)-O-(4-benzoyl-benzoyl)adenosine 5′-triphosphate, Example 4A, read-out: IC50
[2] = 50% decrease in the fluorescence response of cells exposed to 80 μM of 2′(3′)-O-(4-benzoyl-benzoyl)adenosine 5′-triphosphate, determined as in Example 4A, read-out: IC50
[3] = SH-SY5Y cells, 50% decrease in fluorescence response to 80 μM BzATP, read-out: IC50
[4] = fluorescence response of cells exposed to 80 μM 2′(3′)-O-(4-benzoyl-benzoyl)adenosine 5′-triphosphate, Example 4A, read-out: IC50
[5] = 50% decrease in the fluorescence response of cells exposed to 80 μM 2′(3′)-O-(4-benzoyl-benzoyl)adenosine 5′-triphosphate, Example 4A, read-out: IC50
[6] = P2X7 calcium mobilization, Example 4A, 50% decrease in the fluorescence response of cells exposed to 80 μM of (2′(3′)-O-(4-benzoyl-benzoyl)adenosine 5′-triphosephate), read-out: IC50

Compound: O=C(O)Cc1cn2c(C(=O)NCC34CC5CC(CC(C5)C3)C4)cccc2n1 [Compound 16, {5-[(adamantan-1-ylmethyl)carbamoyl]imi-dazo[1,2-a]pyridin-2-yl}acetic acid]
IC50: < 2000 nM

Compound: CCOC(=O)C(Cc1ccccc1)c1cn2c(C(=O)NCC(CC(C)C)c3ccc(Cl)cc3)cccc2n1 (centres unmarked) [Compound 931, ethyl 2-(5-{[2-(4-chlorophenyl)-4-methylpentyl]carbamoyl}imidazo[1,2-a]pyridin-2-yl)-3-phenylpropanoate]
IC50 [2]: < 2000 nM

Compound: CC(O)CNC(=O)Cc1cn2c(C(=O)NCC3(c4cccnc4)CCCCC3)cccc2n1 (centres unmarked) [Compound 857, 2-{2-[(2-hydroxypropyl)amino]-2-oxoethyl}-N-[(1-pyridin-3-ylcyclohexyl)methyl] imidazo[1,2-a] pyridine-5-carboxamide]
IC50 [2]: < 2000 nM

Compound: O=C(NCC1(c2cccnc2)CCCCC1)c1cccc2nc(CC(=O)N3CCSCC3)cn12 [Compound 890, 2-(2-oxo-2-thiomorpholin-4-ylethyl)-N-[(1-pyridin-3-ylcyclohexyl)methyl] imidazo[1,2-a] pyridine-5-carboxamide]
IC50 [2]: < 2000 nM

Compound: CC(C)CC(CNC(=O)c1cccc2nc(CNc3cc[nH]n3)cn12)c1ccc(Cl)cc1 (centres unmarked) [Compound 835, N-[2-(4-chlorophenyl)-4-methylpentyl]-2-[(1H-pyrazol-3-ylamino)methyl] imidazo [1,2-a]pyridine-5-carboxamide]
IC50 [2]: < 2000 nM

Compound: O=C(NCC1(c2ccc(Cl)cc2)CCCCC1)c1cccc2nc(C(Cc3ccccc3)C(=O)O)cn12 (centres unmarked) [Compound 936, 2-[5-({[1-(4-chlorophenyl)cyclohexyl]methyl}carbamoyl)imidazo[1,2-a]pyridin-2-yl]-3-phenylpropanoic acid]
IC50 [2]: < 2000 nM

Compound: CC1(C)[C@H]2CC[C@@H](CNC(=O)c3cccc4nc(C(=O)N5CCC(F)CC5)cn34)[C@@H]1C2 [Compound 494, N-{[(1S,2R,5S)-6,6-dimethylbicyclo[3.1.1]hept-2-yl]methyl}-2-[(4-fluoropiperidin-1-yl)carbonyl]imidazo[1,2-a]pyridine-5-carboxamide]
IC50 [5]: < 2000 nM

Compound: CNC1CCN(C(=O)Cc2cn3c(C(=O)NC[C@@H]4CC[C@@H]5C[C@H]4C5(C)C)cccc3n2)C1 (stereo partly drawn) [Compound 568, N-{[(1R,2R,5R)-6,6-dimethylbicyclo[3.1.1]hept-2-yl]methyl}-2-{2-[3-(methylamino)pyrrolidin-1-yl]-2-oxoethyl}imidazo[1,2-a]pyridine-5-carboxamide]
IC50 [5]: < 2000 nM

Compound: O=C(NCC1(c2ccc(Cl)cc2)CCCCC1)c1cccc2nc(C(F)(F)F)cn12 [Compound 1020, N-{[1-(4-chlorophenyl)cyclohexyl]methyl}-2-(trifluoromethyl) imidazo [1,2-a]pyridine-5-carboxamide]
IC50 [6]: < 2000 nM

Compound: O=C(Cc1cn2c(C(=O)NCC3(c4cccnc4)CCCCC3)cccc2n1)NCC(F)(F)F [Compound 874, 2-{2-oxo-2-[(2,2,2-trifluoroethyl)amino]ethyl}-N-[(1-pyridin-3-ylcyclohexyl)methyl] imidazo[1,2-a] pyridine-5-carboxamide]
IC50 [2]: < 2000 nM

Compound: CC(C)CC(CNC(=O)c1cccc2ncc(Cl)n12)c1ccc(C(F)(F)F)nc1 (centres unmarked) [Compound 1052, 3-chloro-N-{4-methyl-2-[6-(trifluoromethyl)pyridin-3-yl]pentyl} imidazo[1,2-a]pyridine-5-carboxamide]
IC50 [6]: < 2000 nM

Compound: CC(C)CC(CNC(=O)c1cccc2nc(C3CCC(C(=O)O)CC3)cn12)c1ccc(Cl)cc1 (centres unmarked) [Compound 969, 4-(5-{[2-(4-chlorophenyl)-4-methylpentyl]carbamoyl}imidazo[1,2-a]pyridin-2-yl)cyclohexane-carboxylic acid]
IC50 [2]: < 2000 nM

Compound: COC[C@@H]1CCCN1C(=O)c1cn2c(C(=O)NC[C@@H]3CC[C@H]4C[C@@H]3C4(C)C)cccc2n1 [Compound 473, N-{[(1S,2R,5S)-6,6-dimethylbicyclo[3.1.1]hept-2-yl]methyl}-2-{[(2S)-2-(methoxymethyl)pyrrolidin-1-yl]carbonyl}imidazo[1,2-a]pyridine-5-carboxamide]
IC50 [5]: < 2000 nM

Compound: COC(=O)C1CCCN1C(=O)c1cn2c(C(=O)NC[C@@H]3CC[C@H]4C[C@@H]3C4(C)C)cccc2n1 (stereo partly drawn) [Compound 480, methyl 1-{[5-({[(1S,2R,5S)-6.6-dimethylbicyclo[3.1.1]hept-2-yl]methyl}carbamoyl)imidazo[1,2-a]pyridin-2-yl]carbonyl}prolinate]
IC50 [5]: < 2000 nM

The next lines start with the values.

IC50 [1]: < 2000 nM
Compound: O=C(O)CCCc1cn2c(C(=O)NCC34CC5CC(CC(C5)C3)C4)cccc2n1 [Compound 692, 4-{5-[(adamantan-1-ylmethyl)carbamoyl]imidazo[1,2-a]pyridin-2-yl} butanoic acid]

IC50 [1]: < 2000 nM
Compound: CC(C)(C)OC(=O)C(C#N)Cc1cn2c(C(=O)NCC34CC5CC(CC(C5)C3)C4)cccc2n1 (centres unmarked) [Compound 806, tert-butyl 3-{5-[(adamantan-1-ylmethyl)carbamoyl]imidazo[1,2-a]pyridin-2-yl}-2-cyanopropanoate]

IC50 [1]: < 2000 nM
Compound: N[C@@H]1CCCN(C(=O)Cc2cn3c(NC(=O)CC45CC6CC(CC(C6)C4)C5)cccc3n2)C1 [Compound 771, 2-adamantan-1-yl-N-(2-{2-[(3R)-3-aminopiperidin-1-yl]-2-oxoethyl}imidazo[1,2-a]pyridin-5-yl)acetamide]

IC50 [3]: < 2000 nM
Compound: O=C(Cc1cn2c(C(=O)NCC34CC5CC(CC(C5)C3)C4)cccc2n1)NCC1CC1 [Compound 147, N-(adamantan-1-ylmethyl)-2-{2-[(cyclopropylmeth-yl)amino]-2-oxoethyl}imidazo[1,2-a]pyridine-5-carboxamide]

IC50 [3]: < 2000 nM
Compound: N[C@H]1CCN(Cc2cn3c(C(=O)NCC45CC6CC(CC(C6)C4)C5)cccc3n2)C1 [Compound 188, N-(adamantan-1-ylmethyl)-2-{[(3S)-3-aminopyrrolidin-1-yl]methyl}imidazo[1,2-a]pyridine-5-carboxamide]

IC50 [1]: < 2000 nM
Compound: O=C(NC1CCNCC1)c1cn2c(C(=O)NCC34CC5CC(CC(C5)C3)C4)cccc2n1 [Compound 637, 5-N-(adamantan-1-ylmethyl)-2-N-piperidin-4-ylimidazo[1,2-a]pyridine-2,5-dicarboxamide]

IC50 [4]: < 2000 nM
Compound: COC(=O)C1CCCN1C(=O)c1cn2c(NC(=O)CC34CC5CC(CC(C5)C3)C4)cccc2n1 (centres unmarked) [Compound 376, methyl 1-({5-[(adamantan-1-ylacetyl)amino]imidazo [1,2-a]pyridin-2-yl}carbonyl)prolinate]

IC50 [5]: < 2000 nM
Compound: O=C(CC12CC3CC(CC(C3)C1)C2)Nc1cccc2nc(C(=O)N3CCC(CCO)CC3)cn12 [Compound 423, 2-adamantan-1-yl-N-(2-{[4-(2-hydroxyethyl)piperidin-1-yl]carbonyl}imidazo [1,2-a]pyridin-5-yl)acetamide]

IC50 [1]: < 2000 nM
Compound: CCN1CCCC1CNC(=O)c1cn2c(C(=O)NCC34CC5CC(CC(C5)C3)C4)cccc2n1 (centres unmarked) [Compound 643, 5-N-(adamantan-1-ylmethyl)-2-N-[(1-ethylpyrrolidin-2-yl)methyl]imidazo[1,2-a]pyridine-2,5-dicarboxamide]

IC50 [3]: < 2000 nM
Compound: CN1CCC(N(C)C(=O)c2cn3c(C(=O)NCC45CC6CC(CC(C6)C4)C5)cccc3n2)C1 (centres unmarked) [Compound 92, 5-N-(adamantan-1-ylmethyl)--methyl--(1-methylpyrrolidin-3-yl)imidazo[1,2-a]pyridine-2,5-dicarboxamide]

IC50 [4]: < 2000 nM
Compound: O=C(CC12CC3CC(CC(C3)C1)C2)Nc1cccc2nc(C(=O)N3CCSCC3)cn12 [Compound 362, 2-adamantan-1-yl-N-[2-(thiomorpholin-4-ylcarbonyl)imidazo[1,2-a]pyridin-5-yl]acetamide]

IC50 [1]: < 2000 nM
Compound: NC1CN(C(=O)c2cn3c(C(=O)NCC45CC6CC(CC(C6)C4)C5)cccc3n2)C1 [Compound 635, N-(adamantan-1-ylmethyl)-2-[(3-aminoazetidin-1-yl)carbonyl]imidazo[1,2-a]pyridine-5-carboxamide]

IC50 [4]: < 2000 nM
Compound: CCCCN(CC)C(=O)c1cn2c(NC(=O)CC34CC5CC(CC(C5)C3)C4)cccc2n1 [Compound 373, 5-[(adamantan-1-ylacetyl)amino]-N-butyl-N-ethylimidazo[1,2-a]pyridine-2-carboxamide]

IC50 [3]: < 2000 nM
Compound: CN(C)C(=O)Cc1cn2c(C(=O)NCC34CC5CC(CC(C5)C3)C4)cccc2n1 [Compound 165, N-(adamantan-1-ylmethyl)-2-[2-(dimethylamino)-2-oxoethyl]imidazo[1,2-a]pyridine-5-carboxamide]

IC50 [5]: < 2000 nM
Compound: CN(C)C(=O)c1cn2c(C(=O)NC[C@@H]3CC[C@H]4C[C@@H]3C4(C)C)cccc2n1 [Compound 470, 5-N-{[(1S,2R,5S)-6,6-dimethylbicyclo[3.1.1]hept-2-yl]methyl}-2-N,2-N-dimethylimidazo[1,2-a]pyridine-2,5-dicarboxamide]
